Where two headings read alike, the source gives them in different places.
What was measured:
Type in all cases: cell-based
[1] = target: T1, NKX2-5 transcriptional activity (Mus musculus, UniProt P42582); assay: NKX2-5 luciferase reporter assay (3xNKE reporter, COS-1 cells); details: for activity at 3 µM: read-out: NKX.3µM; for activity at 10 µM: read-out: NKX.10µM
T1 construct: expressed in transfected cells; host or cells: COS-1
Procedure: (§1) To screen compounds for the GATA4–NKX2-5 interaction, we have developed a luciferase reporter assay based on their property to activate gene transcription synergistically through the NKX2-5 binding site on DNA.[28] In this assay, we transfected mammalian COS-1 cells with protein expression vectors for GATA4 and NKX2-5 proteins together with artificial luciferase reporter vector containing three high affinity binding sites for NKX2-5 (NKE). […] All 257 compounds were tested in two concentrations, 3 and 10 μM. Compounds either inhibited, enhanced, or had no effect on the GATA4–NKX2-5 transcriptional synergy. To investigate the selectivity of the active compounds, we tested their effects on NKX2-5 transcriptional activity by using the same luciferase reporter vector as in transcriptional synergy assay with three NKE sites (Figure 3B). Furthermore, we used GATA luciferase reporter assay to examine if compounds have an effect on GATA4 transcriptional activity. In this assay, we cotransfected the cells with a GATA4 protein expression vector and a reporter vector with tandem GATA4 binding sites (Figure 3C). Previously we have reported that compound 1 inhibited the GATA4–NKX2-5 transcriptional synergy at micromolar concentrations (IC50 = 3 μM).[29]
(§2) The plasmids expressing mouse GATA4 protein, pMT2-GATA4, and empty pMT2 were gifts from D. B. Wilson (Department of Pediatrics, St. Louis Children’s Hospital, St. Louis, MO).[44] The plasmids expressing mouse NKX2-5 protein, pMT2-NKX2-5, have been described earlier.[28] The luciferase reporter plasmid used in GATA4–NKX2-5 transcriptional synergy assay and NKX transcriptional assay, pGL3-3xHA, contains three high affinity binding sites for NKX2-5.[28] The luciferase reporter plasmid used in GATA transcriptional assay, NP-112, contains tandem GATA-sites and minimal promoter of rat brain natriuretic peptide (BNP) gene.[45] The pGL3-BNP luciferase reporter containing −534/+4 bp rat BNP proximal promoter described previously was used in hypertrophy assay.[46]
(§3) The primary screening assay of compounds’ effect on GATA4–NKX2-5 transcriptional synergy and COS-1 cell culturing has been described earlier.[33] […] (Kinnunen et al., unpublished observation). Briefly, COS-1 cells were seeded at 14 000 cells/well in Isoplate-96 microplates (PerkinElmer, Turku, Finland) and grown overnight. The cells were transfected with the luciferase reporter plasmid pGL3-3xHA 100 ng/well and equal amounts of expression plasmids pMT2-GATA4 and pMT2-NKX2-5 total 50 ng/well. To verify the synergistic effect, the cells were transfected with pMT2-GATA4 or pMT2-NKX2-5 25 ng/well, and the total DNA concentration was adjusted to 50 ng/well with empty pMT2 plasmid. In NKX2-5 and GATA4 luciferase reporter assays, the cells were transfected with reporter plasmid pGL3-3xHA or NP-112 (100 ng/well) and expression plasmid pMT2-NKX2-5 or pMT2-GATA4 (25 ng/well). The ratio of DNA/transfection reagent (Fugene 6, Promega) was 1:3 in all assays. The transfections were performed in serum and antibiotics free media for 6 h. The cells were treated with compounds or vehicle (0.1% DMSO) for 24 h, and the luminescence was measured using neolite Reporter Gene Assay System (PerkinElmer, Turku, Finland) and Victor2 plate reader (PerkinElmer, Turku, Finland).
(§4) Raw luciferase data were analyzed in Excel, and clear outliers were removed from triplicates by using the Grubb’s test. Data analysis was performed using R.[49] The luciferase data were first normalized on the basis of the combined mean value of controls. For data visualization and creation of figures, the following R packages were used: ggplot2, cowplot, RColorBrewer, and pheatmap. The heatmaps of the toxicity data were produced with GraphPad Prism 7.00 (GraphPad Software, La Jolla, CA). Statistical significance of luciferase reporter assay data was evaluated by randomized block analysis of variance followed by Dunnett’s post hoc test. […]

[2] = target: T2, GATA4 transcriptional activity (Mus musculus, UniProt Q08369); assay: GATA4 luciferase reporter assay (tandem GATA-site reporter, COS-1 cells)
T2 construct: expressed in transfected cells; host or cells: COS-1
Procedure: as §1, §2, §3, §4

[3] = target: T3, GATA4–NKX2-5 transcriptional synergy (Mus musculus, UniProt P42582+Q08369); assay: GATA4–NKX2-5 transcriptional synergy luciferase reporter assay (3xNKE reporter, COS-1 cells)
T3 construct: expressed in transfected cells; host or cells: COS-1

[4] = COS-1, compound 3 µM, luciferase reporter activity, spread in separate STDEV column
[5] = COS-1, compound 10 µM, luciferase reporter activity, spread in separate STDEV column
[6] = 3 µM compound, NKX2-5 luciferase reporter, COS-1 cells
[7] = 3 µM compound, GATA4 luciferase reporter, COS-1 cells
[8] = 3 µM compound, GATA4–NKX2-5 transcriptional synergy reporter, COS-1 cells
[9] = COS-1, 3 µM, luciferase reporter activity, % of control
[10] = COS-1, 10 µM, luciferase reporter activity, % of control
[11] = COS-1, compound at 3 µM, luciferase reporter activity, % of control
[12] = 10 µM compound, NKX2-5 luciferase reporter, COS-1 cells
[13] = 10 µM compound, GATA4 luciferase reporter, COS-1 cells
[14] = 10 µM compound, GATA4–NKX2-5 transcriptional synergy reporter, COS-1 cells

T3 sequence (Q08369 whole entry): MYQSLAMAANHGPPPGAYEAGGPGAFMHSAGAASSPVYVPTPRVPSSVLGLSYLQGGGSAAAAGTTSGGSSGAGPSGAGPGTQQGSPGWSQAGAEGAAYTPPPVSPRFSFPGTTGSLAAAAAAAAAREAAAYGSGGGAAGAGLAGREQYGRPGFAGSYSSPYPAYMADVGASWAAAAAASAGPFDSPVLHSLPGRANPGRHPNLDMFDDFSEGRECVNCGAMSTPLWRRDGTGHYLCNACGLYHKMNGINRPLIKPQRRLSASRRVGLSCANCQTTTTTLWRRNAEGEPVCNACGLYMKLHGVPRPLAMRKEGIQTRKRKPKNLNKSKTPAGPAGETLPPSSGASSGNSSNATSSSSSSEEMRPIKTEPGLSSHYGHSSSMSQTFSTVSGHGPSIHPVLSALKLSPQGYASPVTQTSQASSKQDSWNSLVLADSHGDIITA
T3 sequence (P42582 whole entry): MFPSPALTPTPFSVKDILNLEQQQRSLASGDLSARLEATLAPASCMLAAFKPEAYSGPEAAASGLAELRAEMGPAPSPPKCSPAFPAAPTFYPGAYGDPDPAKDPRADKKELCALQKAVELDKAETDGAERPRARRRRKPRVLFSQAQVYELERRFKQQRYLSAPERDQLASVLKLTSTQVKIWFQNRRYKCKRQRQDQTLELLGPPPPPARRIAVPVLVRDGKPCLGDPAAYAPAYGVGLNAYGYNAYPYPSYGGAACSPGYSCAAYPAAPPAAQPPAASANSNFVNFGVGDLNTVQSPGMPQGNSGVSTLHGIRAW
T2 sequence (Q08369 whole entry): as the sequence (Q08369 whole entry) above
T1 sequence (P42582 whole entry): as the sequence (P42582 whole entry) above

CCN(CC)c1ccc(NC(=O)c2c(-c3cc(C)on3)noc2C)cc1 [Compound 39o]
activity at 3 µM [1, 4]: 101%
activity at 3 µM [2, 4]: 89.2%
activity at 10 µM [2, 5]: 101%
activity at 3 µM [3, 4]: 97.1%
activity at 10 µM [3, 5]: 102%

Cc1onc(-c2ccccc2)c1COc1ccc(C(=O)OCCCC#N)cc1 [Compound 35b, 3-Cyanopropyl 4-[(5-Methyl-3-phenylisoxazol-4-yl)methoxy]benzoate]
activity at 3 µM [1, 6]: 82.5%
activity at 3 µM [2, 7]: 73.9%
activity at 3 µM [3, 8]: 85.5%

Cc1onc(-c2ccccc2)c1C(=O)Nc1ccc(-c2ccccc2)cc1 [Compound 4f]
activity at 3 µM [1, 9]: 91%
activity at 3 µM [2, 9]: 102%
activity at 10 µM [2, 10]: 114%
activity at 3 µM [3, 9]: 72.7%
activity at 10 µM [3, 10]: 112%

CCN(CC)c1ccc(NC(=O)c2c(-c3ccccc3Cl)noc2C)cc1 [Compound 39k]
effect on NKX2-5 transcriptional activity (in words) [1]: did not affect
activity at 3 µM [1, 11]: 157%
effect on GATA4 transcriptional activity (in words) ([2]; 10 µM): slightly increased
activity at 3 µM [2, 11]: 86.1%
activity at 10 µM ([2]; COS-1, compound at 10 µM, luciferase reporter activity, % of control): 112%
activity at 3 µM [3, 11]: 107%

COc1cc(C(=O)Nc2cc(-c3ccncc3)n[nH]2)ccc1C [SI123]
activity at 3 µM ([1]; COS-1, NKX2-5 luciferase reporter assay, compound at 3 µM): 106%
activity at 10 µM ([1]; COS-1, NKX2-5 luciferase reporter assay, compound at 10 µM): 90.4%
activity at 3 µM ([2]; COS-1, GATA4 luciferase reporter assay, compound at 3 µM): 105%
activity at 10 µM ([2]; COS-1, GATA4 luciferase reporter assay, compound at 10 µM): 80.9%
activity at 3 µM ([3]; COS-1, GATA4-NKX2-5 transcriptional synergy luciferase reporter assay, compound at 3 µM): 93.2%
activity at 10 µM ([3]; COS-1, GATA4-NKX2-5 transcriptional synergy luciferase reporter assay, compound at 10 µM): 72.3%

CN(C)c1ccc(CNc2cc(-c3ccccc3)nn2-c2ccccc2)cc1 [SI94]
activity at 3 µM [1, 4]: 95.3%
activity at 10 µM [1, 5]: 79%
activity at 3 µM [2, 4]: 96.8%
activity at 10 µM [2, 5]: 85%
activity at 3 µM [3, 4]: 69%
activity at 10 µM [3, 5]: 72.5%

C#CC[N+](CC)(CC)c1ccc(NC(=O)c2c(-c3ccccc3)noc2C)cc1 [Compound 77]
activity at 3 µM [1, 9]: 97.9%
activity at 10 µM [1, 10]: 117%
activity at 3 µM [2, 9]: 101%
activity at 10 µM [2, 10]: 95.3%
activity at 3 µM [3, 9]: 84%
activity at 10 µM [3, 10]: 101%

CCc1noc(C)c1C(=O)Nc1ccc(N(CC)CC)cc1 [Compound 39b]
activity at 3 µM [1, 6]: 124%
activity at 10 µM [1, 12]: 164%
activity at 3 µM [2, 7]: 120%
activity at 10 µM [2, 13]: 143%
activity at 3 µM [3, 8]: 97.5%
activity at 10 µM [3, 14]: 104%

CCN(c1ccc(NC(=O)c2c(C)noc2-c2cc(C)on2)cc1)C(C)C [Compound 74]
activity at 3 µM [1, 6]: 85.2%
activity at 10 µM [1, 12]: 88.8%
activity at 3 µM [2, 7]: 103%
activity at 10 µM [2, 13]: 125%
activity at 10 µM [3, 14]: 96.6%

Cc1onc(-c2ccccc2)c1COCc1ccc2ccccc2c1 [SI48]
activity at 3 µM [1, 9]: 103%
activity at 10 µM [1, 10]: 95.1%
activity at 3 µM [2, 9]: 96.5%
activity at 10 µM [2, 10]: 110%
activity at 3 µM [3, 9]: 104%
activity at 10 µM [3, 10]: 90.6%

Cc1onc(-c2ccccc2)c1C(=O)Nc1nc(C(C)(C)C)cs1 [Compound 4k, N-[4-(tert-Butyl)thiazol-2-yl]-5-methyl-3-phenylisoxazole-4-carboxamide]
activity at 3 µM [1, 4]: 97.7%
activity at 3 µM [2, 4]: 109%
activity at 10 µM [2, 5]: 114%
activity at 3 µM [3, 4]: 117%
activity at 10 µM [3, 5]: 115%

CCN(CC)c1ccc(NC(=O)c2cc(C)oc2-c2cc(C)on2)cc1 [Compound 47h]
activity at 3 µM [1, 4]: 114%
activity at 10 µM [1, 5]: 106%
activity at 3 µM [2, 4]: 134%
activity at 10 µM [2, 5]: 143%
activity at 3 µM [3, 4]: 118%
activity at 10 µM [3, 5]: 104%

From paper PMC7076710, “Synthesis, Identification, and Structure–Activity Relationship Analysis of GATA4 and NKX2-5 Protein–Protein Interaction Modulators” (Journal of Medicinal Chemistry, 2019)
